In publication PMC5374710, “Discovery of the first dual GSK3β inhibitor/Nrf2 inducer. A new multitarget therapeutic strategy for Alzheimer’s disease” (Scientific Reports, 2017):

Tested on: HO-1
Test: HO-1 expression in glial cultures (western blot)
Type: cell-based, rat
Settings: 30 μM, 24 h
Experimental: TNFα is considered one of the most important pro-inflammatory cytokines. […] The production of TNFα induced by LPS was reduced by 33% at 10 μM and by 50% at 30 μM. […] To further confirm the anti-inflammatory potential of compound 5c we measured the expression of thre NOX2 enzyme, since this isoform has been widely described as being specific tomicroglial cells. As depicted in Fig. 6F, LPS (1 μg/mL) stimulation of primary glial cultures during 24 h increased the expression of NOX2 by 65.3% (p < 0.01) compared to basal conditions.
Figure 6 Nitrites (A), TNFα (B), iNOS (C) and NOX activity (E) blockade (D) and NOX2 production (F) by 5c in primary glial cultures stimulated with LPS (1 μg/mL), HO-1 expression induced by this compound after 24 h. […] NOX activity was measured after 4 h co-treatment with LPS and compound 5c. […]
After treatment, mixed glial cells were washed with cold PBS and lysed in 100 μl ice-cold lysis buffer (1% Nonident P-40, 10% glycerol, 137 mM NaCl, 20 mM Tris HCl pH 7.5, 1 μg/ml leupeptin, 1 mM phenylmethylsulfonyl fluoride, 20 mM NaF, 1 mM sodium pyrophosphate, and 1 mM Na3VO4). […] Peroxidase-conjugated secondary antibodies (1:10000) were used to detect proteins by enhanced chemiluminescence detected by Advance Western-blotting Detection Kit (GE Healthcare, Barcelona, Spain). […]

COc1cccc(C2C(C#N)=C(N)Oc3n[nH]c(C)c32)c1 (stereo not shown) [Compound 5c, 6-Amino-4-(3-methoxyphenyl)-3-methyl-2,4-dihydropyrano[2,3-c]pyrazole-5-carbonitrile]
HO-1 expression increase in glial cultures: 2.3 times
